In ChEMBL document CHEMBL5108009, “Positron Emission Tomography (PET) Imaging Tracers for Serotonin Receptors” (J Med Chem, 2022):

Legend:
[1] = biological target: T1, 5-hydroxytryptamine receptor 1B (Cavia porcellus, UniProt O08892); test: Binding affinity to guinea pig 5-HT1B receptor assessed as inhibition constant by autoradiographic analysis
[2] = biological target: T1, 5-hydroxytryptamine receptor 1B; test: Binding affinity to guinea pig 5-HT1B receptor assessed as dissociation constant by autoradiographic analysis
[3] = Drug uptake in macaque brain at 3680 to 4035 Ci/mmol, iv measured as percentage of injected dose by PET imaging at 7.5 mins relative to control; type: ADME, organism-based; conditions: macaca, in vivo, 0.125 h, dose 3680-4035 Ci/mmol
[4] = Ratio of drug uptake in macaque brain occipital cortex to cerebellum at 3680 to 4035 Ci/mmol, iv by PET imaging upto 100 mins relative to control; type: ADME, organism-based; conditions: macaca, in vivo, 1.667 h, dose 3680-4035 Ci/mmol
[5] = Ratio of drug uptake in macaque brain striatopallidal complex to cerebellum at 3680 to 4035 Ci/mmol, iv by PET imaging upto 100 mins relative to control; type: ADME, organism-based; conditions: macaca, in vivo, 1.667 h, dose 3680-4035 Ci/mmol
[6] = Ratio of drug uptake in macaque brain thalamus to cerebellum at 3680 to 4035 Ci/mmol, iv by PET imaging upto 100 mins relative to control; type: ADME, organism-based; conditions: macaca, in vivo, 1.667 h, dose 3680-4035 Ci/mmol
[7] = Ratio of drug uptake in macaque brain frontal cortex to cerebellum at 3680 to 4035 Ci/mmol, iv by PET imaging upto 100 mins relative to control; type: ADME, organism-based; conditions: macaca, in vivo, 1.667 h, dose 3680-4035 Ci/mmol
[8] = biological target: T2, Serotonin 2 (5-HT2) receptor (Homo sapiens, UniProt P41595+P28223+P28335); test: Binding affinity to 5-HT2 receptor (unknown origin) assessed as dissociation constant; type: protein assay
[9] = biological target: T3, 5-hydroxytryptamine receptor 1A (Homo sapiens, UniProt P08908); test: Binding affinity to 5-HT1A receptor (unknown origin) assessed as inhibition constant by scintillation spectroscopic analysis
T3 sequence (P08908 whole entry): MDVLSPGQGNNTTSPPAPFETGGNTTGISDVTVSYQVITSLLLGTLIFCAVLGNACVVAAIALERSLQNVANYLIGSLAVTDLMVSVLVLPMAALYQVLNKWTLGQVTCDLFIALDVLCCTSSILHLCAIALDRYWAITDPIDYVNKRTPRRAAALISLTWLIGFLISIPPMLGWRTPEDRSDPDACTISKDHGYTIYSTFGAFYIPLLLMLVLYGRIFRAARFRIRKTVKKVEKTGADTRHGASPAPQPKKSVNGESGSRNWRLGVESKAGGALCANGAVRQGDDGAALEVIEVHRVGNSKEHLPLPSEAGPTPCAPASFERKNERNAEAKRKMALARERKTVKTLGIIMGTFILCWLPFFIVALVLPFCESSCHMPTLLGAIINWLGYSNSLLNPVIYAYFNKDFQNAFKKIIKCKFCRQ

[10] = Drug uptake in rat brain; type: ADME, tissue-based; conditions: in vivo
[11] = Drug uptake in monkey brain measured after 7 mins postinjection; type: ADME, organism-based, Macaca mulatta; conditions: rhesus monkey, in vivo
[12] = biological target: T3, 5-hydroxytryptamine receptor 1A
[13] = Binding affinity to pig 5-HT1B receptor (unknown origin) assessed as inhibition constant
[14] = Drug uptake in cynomolgus monkey frontal cortex administered iv measured as percentage of injected dose by PET imaging relative to control; type: ADME, organism-based, Macaca fascicularis; conditions: in vivo
[15] = Biodistribution in Wistar rat assessed as uptake ratio of cortex to cerebellum at 50 to 100 microCi measured after 2 hrs; type: ADME, organism-based; conditions: in vivo, dose 50-100 microCi
[16] = Binding affinity to rat cerebral cortex homogenate 5-HT1A receptor assessed as inhibition constant; type: tissue-based
[17] = biological target: 5-hydroxytryptamine receptor 2A (Rattus norvegicus, UniProt P14842); test: Displacement of [3H]-spiperone from rat frontal cortex homogenate 5-HT2A receptor; type: tissue-based
D(2) dopamine receptor [18] = biological target: T4, D(2) dopamine receptor (Rattus norvegicus, UniProt P61169); test: Displacement of [3H]-haloperidol from rat striatal homogenate D2 receptor; type: tissue-based, Striatum
[19] = biological target: T5, Alpha-1A adrenergic receptor (Rattus norvegicus, UniProt P43140); test: Displacement of [3H]-WB4101 from rat forebrain homogenate alpha 1 adrenergic receptor; type: tissue-based
T5 sequence (P43140 whole entry): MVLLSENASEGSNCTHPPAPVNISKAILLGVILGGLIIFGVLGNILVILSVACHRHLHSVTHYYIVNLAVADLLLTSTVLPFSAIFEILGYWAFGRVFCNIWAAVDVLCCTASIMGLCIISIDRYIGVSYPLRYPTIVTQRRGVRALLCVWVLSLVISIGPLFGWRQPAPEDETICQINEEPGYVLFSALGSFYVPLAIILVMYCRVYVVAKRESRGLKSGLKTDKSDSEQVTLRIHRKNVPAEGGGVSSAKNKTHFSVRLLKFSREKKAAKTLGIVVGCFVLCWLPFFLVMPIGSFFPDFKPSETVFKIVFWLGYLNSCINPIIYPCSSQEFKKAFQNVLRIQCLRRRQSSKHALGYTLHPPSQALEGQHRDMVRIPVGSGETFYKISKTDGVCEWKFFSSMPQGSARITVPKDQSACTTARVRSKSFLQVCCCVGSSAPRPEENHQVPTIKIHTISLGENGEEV

[20] = biological target: T3, 5-hydroxytryptamine receptor 1A; test: Inhibition of 5-HT1A receptor (unknown origin)
[21] = biological target: T6, 5-hydroxytryptamine receptor 1A (Rattus norvegicus, UniProt P19327); test: Binding affinity to rat brain homogenate 5-HT1A receptor assessed as dissociation constant; type: tissue-based
T6 sequence (P19327 whole entry): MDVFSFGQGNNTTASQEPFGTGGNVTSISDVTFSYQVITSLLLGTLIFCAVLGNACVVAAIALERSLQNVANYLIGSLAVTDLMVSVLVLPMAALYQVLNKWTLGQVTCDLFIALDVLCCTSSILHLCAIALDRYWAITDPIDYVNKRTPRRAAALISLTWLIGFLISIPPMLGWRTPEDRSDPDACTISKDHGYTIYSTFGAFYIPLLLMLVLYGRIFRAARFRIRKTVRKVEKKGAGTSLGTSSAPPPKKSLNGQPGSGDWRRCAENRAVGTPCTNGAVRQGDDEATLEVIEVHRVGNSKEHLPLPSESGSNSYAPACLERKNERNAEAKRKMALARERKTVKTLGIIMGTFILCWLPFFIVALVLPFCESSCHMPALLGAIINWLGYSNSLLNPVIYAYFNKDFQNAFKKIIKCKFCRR

D(2) dopamine receptor [22] = biological target: T4, D(2) dopamine receptor; test: Binding affinity to rat brain homogenate D2 receptor assessed as dissociation constant; type: tissue-based
[23] = biological target: Sodium-dependent serotonin transporter (Rattus norvegicus, UniProt P31652); test: Binding affinity to rat brain homogenate SERT receptor assessed as dissociation constant; type: tissue-based
[24] = biological target: T2, Serotonin 2 (5-HT2) receptor; test: Binding affinity to cerebrum 5-HT2 receptor (unknown origin); type: tissue-based
[25] = Ratio of drug uptake in human frontal cortex to cerebellum at 15 mCi measured after 30 mins postinjection by PET imaging; type: ADME, organism-based, Brain frontal cortex/cerebellum; conditions: in vivo, 0.5 h
[26] = Ratio of drug uptake in human frontal cortex to cerebellum at 15 mCi measured after 60 mins postinjection by PET imaging; type: ADME, organism-based, Brain frontal cortex/cerebellum; conditions: in vivo, 1 h

T4 sequence (P61169 whole entry): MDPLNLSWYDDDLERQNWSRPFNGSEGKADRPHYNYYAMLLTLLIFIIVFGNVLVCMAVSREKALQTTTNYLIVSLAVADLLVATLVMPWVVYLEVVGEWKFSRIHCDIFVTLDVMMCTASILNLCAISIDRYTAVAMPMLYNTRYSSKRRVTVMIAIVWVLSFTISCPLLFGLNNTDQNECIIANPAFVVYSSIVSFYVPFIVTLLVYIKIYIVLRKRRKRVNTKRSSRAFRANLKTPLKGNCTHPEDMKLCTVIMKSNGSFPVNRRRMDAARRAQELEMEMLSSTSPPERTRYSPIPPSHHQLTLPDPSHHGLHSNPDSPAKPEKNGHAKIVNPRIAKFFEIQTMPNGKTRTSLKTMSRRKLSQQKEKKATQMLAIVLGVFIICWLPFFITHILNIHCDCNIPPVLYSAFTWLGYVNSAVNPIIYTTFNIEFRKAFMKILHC
T1 sequence (O08892 whole entry): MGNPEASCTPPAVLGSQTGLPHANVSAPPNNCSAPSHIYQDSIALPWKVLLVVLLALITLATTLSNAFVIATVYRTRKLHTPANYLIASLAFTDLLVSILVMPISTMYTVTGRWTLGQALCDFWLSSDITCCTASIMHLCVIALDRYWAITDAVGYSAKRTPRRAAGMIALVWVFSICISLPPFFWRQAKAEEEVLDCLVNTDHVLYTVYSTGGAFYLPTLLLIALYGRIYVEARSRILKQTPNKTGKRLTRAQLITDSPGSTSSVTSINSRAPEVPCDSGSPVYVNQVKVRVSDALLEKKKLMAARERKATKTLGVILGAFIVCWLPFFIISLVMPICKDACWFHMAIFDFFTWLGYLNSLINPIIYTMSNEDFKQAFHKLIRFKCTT
Sodium-dependent serotonin transporter, sequence (P31652 whole entry): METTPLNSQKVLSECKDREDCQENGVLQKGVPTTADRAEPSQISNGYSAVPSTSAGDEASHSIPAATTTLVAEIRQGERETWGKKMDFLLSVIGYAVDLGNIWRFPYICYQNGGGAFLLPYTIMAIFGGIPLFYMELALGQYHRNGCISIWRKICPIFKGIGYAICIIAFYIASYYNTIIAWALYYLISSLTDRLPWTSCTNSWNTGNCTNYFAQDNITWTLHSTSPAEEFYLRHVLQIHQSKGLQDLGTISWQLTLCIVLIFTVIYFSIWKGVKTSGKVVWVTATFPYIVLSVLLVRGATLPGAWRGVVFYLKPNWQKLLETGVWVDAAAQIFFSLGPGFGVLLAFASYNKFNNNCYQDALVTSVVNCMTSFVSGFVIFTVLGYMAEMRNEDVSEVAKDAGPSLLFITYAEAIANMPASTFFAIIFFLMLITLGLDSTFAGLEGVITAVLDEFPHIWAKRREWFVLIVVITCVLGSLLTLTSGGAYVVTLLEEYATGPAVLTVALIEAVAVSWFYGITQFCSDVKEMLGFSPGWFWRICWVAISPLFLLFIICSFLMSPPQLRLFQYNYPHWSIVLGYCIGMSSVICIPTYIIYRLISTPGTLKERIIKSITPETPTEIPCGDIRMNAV
5-hydroxytryptamine receptor 2A, sequence (P14842 whole entry): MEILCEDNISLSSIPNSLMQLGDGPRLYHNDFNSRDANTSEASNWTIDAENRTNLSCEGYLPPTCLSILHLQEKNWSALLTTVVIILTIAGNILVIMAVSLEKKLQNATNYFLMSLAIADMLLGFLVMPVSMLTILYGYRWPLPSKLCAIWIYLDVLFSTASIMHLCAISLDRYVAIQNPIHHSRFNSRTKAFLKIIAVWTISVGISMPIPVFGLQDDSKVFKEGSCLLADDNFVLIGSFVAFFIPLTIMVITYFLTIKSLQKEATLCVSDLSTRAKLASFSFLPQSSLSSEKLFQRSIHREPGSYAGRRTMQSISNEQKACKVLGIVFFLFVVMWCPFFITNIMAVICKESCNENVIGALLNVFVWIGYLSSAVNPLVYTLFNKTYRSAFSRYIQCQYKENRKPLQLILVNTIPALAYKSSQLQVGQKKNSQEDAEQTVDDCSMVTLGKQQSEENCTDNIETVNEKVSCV

With Cc1ccc(N2CCN([11CH3])CC2)c2oc(C(=O)Nc3ccc(N4CCOCC4)cc3)cc(=O)c12 the Ki [1] was 0.01 nM, the Kd [2] was 0.4 nM and the Drug uptake [3] was 3%. It also gave a Ratio [4] of 4.2, a Ratio [5] of 4.1 and a Ratio [6] of 2.6. The Ratio [7] was 2.6.

For CN(C)CCO/N=C(/C=C/c1ccc(O)cc1)c1ccccc1F [EPLIVANSERIN], the Kd [8] was 1.2 nM.

Compound CNc1nc(CNCC2(F)CCN(C(=O)c3ccc(F)c(Cl)c3)CC2)ccc1C has a Ki [9] of 0.04 nM.

[11CH3]Oc1ccc2cccc(N3CCN(CCNC(=O)c4ccc(F)cc4)CC3)c2c1 gave an SUV [10] of 2, an SUV [11] of 7 and a Ki [12] of 0.98 nM.

Work on CCC(=O)N1CCN(c2ccc(NC(=O)c3cc(=O)c4cc(F)cc(N5CCN([11CH3])CC5)c4o3)cc2)CC1 yielded a Ki [13] of 2 nM and a Drug uptake [14] of 0.7%.

Work on O=C(c1ccc([18F])cc1)C1CCN(CCn2c(=S)[nH]c3ccccc3c2=O)CC1 yielded a Ratio [15] of 11.

O=S1(=O)c2cccc3cccc(c23)N1CCCN1CCN(c2ccc(F)cc2)CC1 [FANANSERIN] showed a Ki [16] of 70 nM.

With Cc1nc2n(c(=O)c1CCN1CCC(C(=O)c3ccc(F)cc3)CC1)CCS2 [SETOPERONE] the Ki [17] was 2.3 nM, the Ki (D(2) dopamine receptor [18]) was 24 nM and the Ki [19] was 12 nM.

With CCCN(CCC)C1CCc2ccc3[nH]cc(C=O)c3c2C1 (configuration not stated) the IC50 [20] was 1.2 nM and the Ki [12] was 1.2 nM.

For COc1ccccc1N1CCN(CCn2cc(COCC(COc3ccc([Si]([18F])(C(C)(C)C)C(C)(C)C)cc3)OCc3cn(CCN4CCN(c5ccccc5OC)CC4)nn3)nn2)CC1 (configuration not stated), the Ki [21] was 0.099 nM, the Ki (D(2) dopamine receptor [22]) was 2.2 nM and the Ki [23] was 9.8 nM.

Compound CCN(CC)C(=O)[C@@H]1C=C2c3cccc4c3c(c(Br)n4[11CH3])CC2N(C)C1 (some centres not stated) has a Ki [24] of 0.5 nM, a Ratio [25] of 1.7 and a Ratio [26] of 2.7.
